Data on 52 compounds can be found in patent publication US11116760B2 (Gilead Sciences, Inc., priority 2018, dated 2021).

Broadly, the EC50 is the concentration needed to bring the measured effect to its halfway point.

The test deals with α4β7 integrin (Homo sapiens (Human), UniProt P13612+P26010). The experiment in a line: α4β7 Integrin Cell Capture Assay. It counts as cell-based. Particulars: Table 2; capture of α4β7 expressing RPM18866 cells on MadCAM-1 extracellular domain-coated plate.
Chain of α4β7 integrin (P13612 34-1032): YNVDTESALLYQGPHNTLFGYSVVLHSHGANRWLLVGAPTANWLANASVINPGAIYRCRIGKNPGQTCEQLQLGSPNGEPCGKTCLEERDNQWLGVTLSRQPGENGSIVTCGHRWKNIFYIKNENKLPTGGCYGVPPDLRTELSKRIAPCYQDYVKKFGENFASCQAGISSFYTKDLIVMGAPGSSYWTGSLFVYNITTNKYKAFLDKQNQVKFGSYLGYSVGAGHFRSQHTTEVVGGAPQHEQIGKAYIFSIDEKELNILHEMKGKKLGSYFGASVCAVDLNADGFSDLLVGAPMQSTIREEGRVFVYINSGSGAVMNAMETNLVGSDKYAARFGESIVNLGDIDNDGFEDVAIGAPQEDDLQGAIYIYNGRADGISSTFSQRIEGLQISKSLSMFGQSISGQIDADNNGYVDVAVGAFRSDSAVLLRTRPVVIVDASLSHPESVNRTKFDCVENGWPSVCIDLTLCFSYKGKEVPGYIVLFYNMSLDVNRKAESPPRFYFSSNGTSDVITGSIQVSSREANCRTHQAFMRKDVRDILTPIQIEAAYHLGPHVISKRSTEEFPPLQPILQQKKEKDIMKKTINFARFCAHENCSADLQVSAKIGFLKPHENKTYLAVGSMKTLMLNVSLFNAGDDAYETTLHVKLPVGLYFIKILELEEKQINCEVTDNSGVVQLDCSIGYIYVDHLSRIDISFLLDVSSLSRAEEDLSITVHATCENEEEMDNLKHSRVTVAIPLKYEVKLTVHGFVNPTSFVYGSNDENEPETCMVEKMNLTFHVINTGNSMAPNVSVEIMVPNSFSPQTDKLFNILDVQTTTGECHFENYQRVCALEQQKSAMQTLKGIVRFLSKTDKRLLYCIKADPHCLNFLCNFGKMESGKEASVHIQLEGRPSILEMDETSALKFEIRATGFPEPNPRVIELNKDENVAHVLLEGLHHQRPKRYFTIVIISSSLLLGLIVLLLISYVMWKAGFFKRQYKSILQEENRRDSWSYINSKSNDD
Chain of α4β7 integrin (P26010 20-798): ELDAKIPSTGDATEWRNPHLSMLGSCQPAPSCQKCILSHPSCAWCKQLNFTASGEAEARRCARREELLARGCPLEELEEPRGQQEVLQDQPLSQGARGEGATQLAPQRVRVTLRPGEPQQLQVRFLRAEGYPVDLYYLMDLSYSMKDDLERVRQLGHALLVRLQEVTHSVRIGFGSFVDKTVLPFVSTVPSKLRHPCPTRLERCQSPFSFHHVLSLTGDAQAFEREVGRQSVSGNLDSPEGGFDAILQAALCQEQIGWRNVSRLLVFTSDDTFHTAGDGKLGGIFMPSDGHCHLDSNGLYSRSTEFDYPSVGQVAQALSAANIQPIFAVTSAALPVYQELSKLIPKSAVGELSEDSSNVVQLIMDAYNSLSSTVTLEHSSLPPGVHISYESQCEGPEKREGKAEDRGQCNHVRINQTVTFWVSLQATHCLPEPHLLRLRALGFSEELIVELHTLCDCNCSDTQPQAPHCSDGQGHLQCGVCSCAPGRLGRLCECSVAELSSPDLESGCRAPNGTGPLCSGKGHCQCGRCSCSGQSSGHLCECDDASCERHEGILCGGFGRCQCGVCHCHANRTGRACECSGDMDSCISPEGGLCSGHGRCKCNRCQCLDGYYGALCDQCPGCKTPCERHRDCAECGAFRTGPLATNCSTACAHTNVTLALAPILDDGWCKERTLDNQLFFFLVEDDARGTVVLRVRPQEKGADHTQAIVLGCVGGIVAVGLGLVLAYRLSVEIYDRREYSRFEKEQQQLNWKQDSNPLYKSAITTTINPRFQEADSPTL

`N#Cc1ccc(-c2ccc(C[C@H](NC(=O)c3c(F)cc(NC4(C(F)(F)F)CC4)cc3F)C(=O)O)c3cccnc23)c(Cl)c1` [Example 229] came in with an EC50 of 60.5 nM.

`Cc1cc(C(F)(F)F)c(-c2ccc(C[C@H](NC(=O)c3c(F)cc(N4CCOC[C@@H]4C(F)(F)F)cc3F)C(=O)O)c3ccc(C(F)(F)F)nc23)c(=O)n1C` [Example 231] gave an EC50 of 0.9 nM. Against the preceding compound, the EC50 is about 67-fold lower.

`Cn1cc(-c2ccc(C[C@H](NC(=O)c3c(F)cc(N[C@H](c4ccc(Cl)cc4)C(F)(F)F)cc3F)C(=O)O)c3cccnc23)c(=O)n(C)c1=O` [Example 232]: the EC50 was determined as 0.9 nM.

Take `O=C(N[C@@H](Cc1ccc(-c2nccc(OC3CC3)c2C(F)(F)F)c2ncccc12)C(=O)O)c1c(F)cc(N2CCOC[C@@H]2C(F)(F)F)cc1F` [Example 233]: a half-maximal response (EC50) required 2.2 nM.

`CCOCc1cc(OC)c(-c2ccc(C[C@H](NC(=O)c3c(Cl)cc4[nH]ccc4c3Cl)C(=O)O)c3cccnc23)c(OC)c1` [Example 235] yielded an EC50 of 2.3 nM.

On to `CC[C@@H](Nc1cc(F)c(C(=O)N[C@@H](Cc2ccc(-c3nc(C)c(C)c(C)c3C(F)(F)F)c3ncccc23)C(=O)O)c(F)c1)C(F)(F)F` [Example 236], for which the EC50 came to 2.6 nM.

`Cc1c(-c2ccc(C[C@H](NC(=O)c3c(F)cc(N4CCS(=O)(=O)[C@H](C)C4)cc3F)C(=O)O)c3cccnc23)c(=O)n(C)c(=O)n1C` [Example 237] gave an EC50 of 2.6 nM.

For `C[C@@H](Nc1cc(F)c(C(=O)N[C@@H](Cc2ccc(-c3nc(N)ccc3C(F)(F)F)c3ncccc23)C(=O)O)c(F)c1)C(F)(F)F` [Example 238], the EC50 amounted to 2.8 nM. The EC50 values of the last two compounds are within 1.5-fold of each other.

Regarding `O=C(N[C@@H](Cc1ccc(NC(=O)c2c(Cl)cccc2Cl)c2ncccc12)C(=O)O)c1c(F)cccc1F` [Example 239], the response was half-maximal at 77.9 nM (EC50).

Turning to `N#Cc1ccc(-c2ccc(C[C@H](NC(=O)c3c(Cl)cc4[nH]c(Cc5ccccc5)cc4c3Cl)C(=O)O)c3cccnc23)c(Cl)c1` [Example 240], the midpoint of the response, the EC50, lay at 79.2 nM.

`CC(=O)c1cc(F)c(C(=O)N[C@@H](Cc2ccc(-c3ccc(C#N)cc3Cl)c3ncccc23)C(=O)O)c(F)c1` [Example 241] came in with an EC50 of 80.1 nM.

As for `Cc1c(N(C)C)cn(C)c(=O)c1-c1ccc(C[C@H](NC(=O)c2c(F)cc(N3CCOC[C@@H]3C(F)(F)F)cc2F)C(=O)O)c2cccnc12` [Example 242], the EC50 came to 2.8 nM. Compared with the last compound, the EC50 is about 29-fold lower.

For the compound `Cc1cc(C(F)(F)F)c(-c2ccc(C[C@H](NC(=O)c3c(F)cc(N4C[C@H](C)OC[C@H]4C)cc3F)C(=O)O)c3cccnc23)c(=O)n1C` [Example 243], the EC50 worked out at 2.9 nM. This EC50 and that of the compound before are within 1.5-fold of each other.

Regarding `Cc1cc(C(F)(F)F)c(-c2ccc(C[C@H](NC(=O)c3c(F)cc(N4CC[C@@H]4C(F)(F)F)cc3F)C(=O)O)c3cccnc23)c(=O)n1C` [Example 244], the EC50 turned out to be 2.9 nM.

`N#Cc1ccc(-c2ccc(C[C@H](NC(=O)c3c(Cl)cc4[nH]ccc4c3Cl)C(=O)O)c3cccnc23)c(Cl)c1` [Example 246] had an EC50 of 34.3 nM.

As to `CC(C)c1cccnc1-c1ccc(C[C@H](NC(=O)c2c(F)cc(N3CCOC[C@@H]3C(F)(F)F)cc2F)C(=O)O)c2cccnc12` [Example 248], the EC50 turned out to be 3 nM.

In turn, `Cc1cc(C(F)(F)F)c(-c2ccc(C[C@H](NC(=O)c3c(F)cc(N4C[C@@H](C)OC[C@H]4C)cc3F)C(=O)O)c3cccnc23)c(=O)n1C` [Example 249] showed an EC50 of 3 nM.

As to `Cc1cc(C(F)(F)F)c(-c2ccc(C[C@H](NC(=O)c3c(F)cc(N4CCOC[C@H]4CC(F)F)cc3F)C(=O)O)c3cccnc23)c(=O)n1C` [Example 250], the EC50 stood at 3.1 nM. The EC50 values of the last two compounds are within 1.5-fold of each other.

Regarding `CC[C@@H](Nc1cc(F)c(C(=O)N[C@@H](Cc2ccc(-c3nccc(C)c3C(F)(F)F)c3ncccc23)C(=O)O)c(F)c1)C(F)(F)F` [Example 252], the EC50 was found to be 3.1 nM.

Regarding `CC[C@@H](Nc1cc(F)c(C(=O)N[C@H](Cc2ccc(-c3c(C(F)(F)F)cc(C)n(C)c3=O)c3ncccc23)C(=O)O)c(F)c1)C(F)(F)F` [Example 253], the EC50 stood at 3.2 nM.

`Cc1cc(C(F)(F)F)c(-c2ccc(C[C@H](NC(=O)c3c(F)cc(N4CCOC[C@H]4CC(F)(F)F)cc3F)C(=O)O)c3cccnc23)c(=O)n1C` [Example 254] returned an EC50 of 3.2 nM.

In turn, `Cc1nc(-c2ccc(C[C@H](NC(=O)c3c(F)cc(N4CCOC[C@H]4C(F)(F)F)cc3F)C(=O)O)c3cccnc23)c(=O)n(C)c1C` [Example 255] registered an EC50 of 3.4 nM. This EC50 and that of the compound before are within 1.5-fold of each other.

`CC[C@@H](Nc1cc(F)c(C(=O)N[C@@H](Cc2ccc(-c3c(C(F)(F)F)cc(F)c4cccnc34)c3ncccc23)C(=O)O)c(F)c1)C(F)(F)F` [Example 256] displayed an EC50 of 3.5 nM.

As for `Cc1cc(C(F)(F)F)c(-c2ccc(C[C@H](NC(=O)c3c(F)cc(N4CC5CCC4CO5)cc3F)C(=O)O)c3cccnc23)c(=O)n1C` (stereo partly shown) [Example 257], the EC50 came out at 3.5 nM.

On to `CC[C@@H](Nc1cc(F)c(C(=O)N[C@@H](Cc2ccc(-c3nc(C)c4ccc(F)cc4n3)c3ncccc23)C(=O)O)c(F)c1)C(F)(F)F` [Example 258], for which the EC50 was determined as 3.6 nM.

On to `Cc1c(N(C)C)cc(-c2ccc(C[C@H](NC(=O)c3c(F)cc(N4CCOC[C@@H]4C(F)(F)F)cc3F)C(=O)O)c3cccnc23)c(=O)n1C` [Example 259], for which the EC50 came to 3.7 nM.

Compound `Cc1cnc(-c2ccc(C[C@H](NC(=O)c3c(F)cc(N4CCOC[C@@H]4C(F)(F)F)cc3F)C(=O)O)c3cccnc23)c(C(F)(F)F)c1` [Example 260] came in with an EC50 of 3.8 nM.

`Cc1ccnc(-c2ccc(C[C@H](NC(=O)c3c(F)cc(N4CCOC[C@@H]4C(F)(F)F)cc3F)C(=O)O)c3cccnc23)n1` [Example 263] had an EC50 of 4 nM.

`CC[C@@H](Nc1cc(F)c(C(=O)N[C@@H](Cc2ccc(-c3ccc(F)c4cccnc34)c3ncccc23)C(=O)O)c(F)c1)C(F)(F)F` [Example 264] registered an EC50 of 4.1 nM.

For `N#Cc1ccc(-c2ccc(C[C@H](NC(=O)c3c(F)cc(C(=O)N[C@H]4C[C@@H](O)C4)cc3F)C(=O)O)c3cccnc23)c(Cl)c1` [Example 267], the EC50 was 77 nM.

As to `CC[C@@H](Nc1cc(F)c(C(=O)N[C@@H](Cc2ccc(-c3cc(N(C)C)c(C)n(C)c3=O)c3ncccc23)C(=O)O)c(F)c1)C(F)(F)F` [Example 268], the EC50 was determined as 4.3 nM. Compared with the last compound, the EC50 is about 18-fold lower.

As for `CC[C@@H](Nc1cc(F)c(C(=O)N[C@@H](Cc2ccc(-c3c(C(F)(F)F)cc(C)n(C)c3=O)c3nc(C(F)(F)F)ccc23)C(=O)O)c(F)c1)C(F)(F)F` [Example 269], the EC50 was determined as 4.4 nM.

`Cc1ccc(C(F)(F)F)c(-c2ccc(C[C@H](NC(=O)c3c(F)cc(N4CCOC[C@@H]4C(F)(F)F)cc3F)C(=O)O)c3cccnc23)n1` [Example 270] displayed an EC50 of 4.4 nM.

`Cc1ccnc(-c2ccc(C[C@H](NC(=O)c3c(F)cc(N4CCOC[C@@H]4C(F)(F)F)cc3F)C(=O)O)c3cccnc23)c1C` [Example 271]: the EC50 amounted to 4.5 nM.

`CCC(CC)Nc1cc(F)c(C(=O)N[C@@H](Cc2ccc(-c3c(C(F)(F)F)cc(C)n(C)c3=O)c3ncccc23)C(=O)O)c(F)c1` [Example 272] gave an EC50 of 4.5 nM.

`Cc1c(N)cc(-c2ccc(C[C@H](NC(=O)c3c(F)cc(N4CCOC[C@@H]4C(F)(F)F)cc3F)C(=O)O)c3cccnc23)c(=O)n1C` [Example 273] came in with an EC50 of 4.7 nM.

The compound `Cc1nc(C)c(-c2ccc(C[C@H](NC(=O)c3c(F)cc(N4CCOC[C@@H]4C(F)(F)F)cc3F)C(=O)O)c3cccnc23)nc1C` [Example 274] showed an EC50 of 4.8 nM. The EC50 values of the last two compounds are within 1.5-fold of each other.

Compound `CC[C@@H](Nc1cc(F)c(C(=O)N[C@@H](Cc2ccc(-c3nc(C)cc(OC)c3C(F)(F)F)c3ncccc23)C(=O)O)c(F)c1)C(F)(F)F` [Example 275] had an EC50 of 4.8 nM.

As to `CC[C@@H](Nc1cc(F)c(C(=O)N[C@@H](Cc2ccc(-c3ncc4ccccc4c3C(F)(F)F)c3ncccc23)C(=O)O)c(F)c1)C(F)(F)F` [Example 276], a half-maximal effect (EC50) was put at 4.9 nM.

`Cc1cnc(-c2ccc(C[C@H](NC(=O)c3c(F)cc(N4CCOC[C@@H]4C(F)(F)F)cc3F)C(=O)O)c3cccnc23)c(N(C)C)c1` [Example 277] yielded an EC50 of 5.2 nM.

`N#Cc1ccc(-c2ccc(C[C@H](NC(=O)c3c(F)cc(N4CCCCC4)cc3F)C(=O)O)c3cccnc23)c(Cl)c1` [Example 278]: the EC50 came to 82.2 nM.

The compound `O=C(N[C@H](C(=O)O)[C@@H](O)c1ccc(-c2c(Cl)cc(F)cc2Cl)c2ncccc12)c1c(F)cccc1F` [Example 279] returned an EC50 of 82.4 nM.

As to `CC(O)(c1cc(F)c(C(=O)N[C@@H](Cc2ccc(-c3ccc(C#N)cc3Cl)c3ncccc23)C(=O)O)c(F)c1)C(F)(F)F` (stereo partly shown) [Example 280], it took 86.1 nM to reach a half-maximal effect (EC50).

In turn, `Cc1cc(C(F)(F)F)c(-c2ccc(C[C@H](NC(=O)c3c(F)cc(N4CCOC[C@@H]4C(F)(F)F)cc3F)C(=O)O)c3cc(N(C)C)cnc23)c(=O)n1C` [Example 281] returned an EC50 of 5.5 nM.

Consider `O=C(N[C@@H](Cc1ccc(-c2c(Cl)cc(F)cc2Cl)c2ncccc12)C(=O)O)c1c(F)cc(N[C@H](c2ccccc2)C(F)(F)F)cc1F` [Example 282], for which a half-maximal response (EC50) required 26.8 nM.

In turn, `C[C@@H](Nc1cc(F)c(C(=O)N[C@@H](Cc2ccc(-c3ncccc3C(F)(F)F)c3ncccc23)C(=O)O)c(F)c1)C(F)(F)F` [Example 283] yielded an EC50 of 5.7 nM. This EC50 is about 4.7-fold lower than that of the compound before.

`N#Cc1ccc(-c2ccc(C[C@H](NC(=O)c3c(F)cc(NC4(C(F)F)CC4)cc3F)C(=O)O)c3cccnc23)c(Cl)c1` [Example 284] gave an EC50 of 45.9 nM.

On to `Cn1ccc2c(Cl)c(C(=O)N[C@@H](Cc3ccc(-c4ccc(C#N)cc4Cl)c4ncccc34)C(=O)O)c(Cl)cc21` [Example 285], for which the EC50 came to 46.2 nM.

`C[C@H](O)Cc1cc(F)c(C(=O)N[C@@H](Cc2ccc(-c3ccc(C#N)cc3Cl)c3ncccc23)C(=O)O)c(F)c1` [Example 286]: a half-maximal response (EC50) required 47.3 nM. This EC50 and that of the compound before are within 1.5-fold of each other.

Regarding `CC[C@@H](Nc1cc(F)c(C(=O)N[C@@H](Cc2ccc(-c3c(C)c(N(C)C)cn(C)c3=O)c3ncccc23)C(=O)O)c(F)c1)C(F)(F)F` [Example 287], the response was half-maximal at 5.7 nM (EC50).

With `C[C@@H](Nc1cc(F)c(C(=O)N[C@@H](Cc2ccc(-c3c(Cl)cc(C#N)cc3Cl)c3ncccc23)C(=O)O)c(F)c1)C(F)(F)F` [Example 288], the midpoint of the response, the EC50, lay at 5.8 nM.

As for `CC[C@@H](Nc1cc(F)c(C(=O)N[C@@H](Cc2ccc(-c3nc(C)ccc3C(F)(F)F)c3ncccc23)C(=O)O)c(F)c1)C(F)(F)F` [Example 289], the EC50 turned out to be 6.5 nM.
